Laboratory results published in patent US20230172923A1, “METHODS OF TREATING CYTOKINE-RELATED ADVERSE EVENTS” (BRISTOL-MYERS SQUIBB COMPANY, priority 2020, published 2023).
Entries after “also recorded” stand apart in the source; their conditions may differ.

Legend:
Type in all cases: cell-based, human
IL-6 [1] = experiment: LPS-induced IL-6 secretion from isolated monocytes (MSD); conditions: overnight (~17 hours) 1000 nM lenalidomide, 100 nM pomalidomide, 10 nM iberdomide or 1 nM Compound 1; LPS 4 hours
Experimental: Monocytes from healthy volunteers were seeded at a concentration of 1×10^6 cells/ml and treated with the indicated concentration of IMiD/CELMoD agents overnight (~17 hours). The next morning, the monocytes were incubated with the indicated concentration of LPS for 4 hours, before IL-6 levels in the supernatant were assessed using an MSD assay.
eripheral blood mononuclear cells (PBMCs) were isolated from the blood of four healthy human donors by Ficoll cell separation, and then monocytes were isolated from these PBMCs by negative selection. The enriched monocytes were seeded at a concentration of 1×10^6 cells/ml and incubated overnight (~17 hours) with 1000 nM lenalidomide, 100 nM pomalidomide, 10 nM iberdomide or 1 nM Compound 1, or control DMSO (0.001%), before stimulation with various concentrations of LPS for IL-6 secretion.
After 4 hours, the cell culture was spun down at 300 g for 5 minutes to remove cells, and the supernatant was subjected to Meso Scale Discovery (MSD) analysis to quantify secreted IL-6.

IL-6 [2] = experiment: CC-93269-induced IL-6 secretion, co-culture of PBMCs and K562-BCMA cells (MSD); conditions: 24 hours; for secretion of IL-6 associated with CC-93269 activity, PBMCs + K562-BCMA: pre-treatment 1000 nM lenalidomide, 100 nM pomalidomide, 10 nM iberdomide or 1 nM Compound 1, T-cells to target cells 5:1
Experimental: (§1) Fresh PBMCs were isolated from healthy volunteers, the percentage of CD3+ T-cells (total) was quantified by flow cytometry, and the PBMCs were treated with 1 nM Compound 1 (CC-92480) or control DMSO overnight. The next morning, target cells (K562-BCMA, which overexpress surface BCMA at a very high level) or control cells (K562-MCB, no BCMA expression) were added to the wells at a ratio of 5:1, T-cells to target cells, followed by addition of CC-93269 at the indicated concentrations. At 6-, 24- and 48-hours post-incubation, the cell culture media was collected and levels of IL-6 in the supernatant were assessed using an MSD assay.
The circles indicate independent donors and the bars indicate median values; not all donors are shown because a data cut-off for the bottom ~10% of IL-6 concentrations, below 200 pg/ml, was used to eliminate small changes that could skew the result and to increase confidence in results.
as §1, with “the indicated concentrations of IMiD/CELMoD agents” for “1 nM Compound 1 (CC-92480)”, “level)” for “level) or control cells (K562-MCB, no BCMA expression)”, “24 hours” for “6-, 24- and 48-hours”
Fresh PBMCs were isolated from the blood (buffy coat) of healthy human volunteers by Ficoll based cell separation. The percentage of CD3+ T-cells (total) in the PBMCs was quantified by flow cytometry. The isolated PBMCs were seeded in 12-well plates at a concentration of 1.5×10^6 cells/ml and treated with 1 nM Compound 1 (CC-92480), 1000 nM lenalidomide, 100 nM pomalidomide, 10 nM iberdomide, or control DMSO overnight (~17 hours).
After overnight incubation, target K562-BCMA cells (overexpress surface BCMA at a very high level) or control K562-MCB cells (no BCMA expression) were added to the wells at a ratio of 5:1, T-cells to target cells. K562-BCMA and K562-MCB are an isogenic pair that are derived from a chronic myelogenous leukemia (CML,) cell line. CC-93269 was added to the co-culture at various concentrations and incubated. CC-93269 is an anti-BCMA anti-CD3 bispecific T cell-engaging antibody and is also referred to herein as 42-TCBcv.
At 6, 24 and 48 hours post-incubation, the cell culture media was collected from all samples, spun down at 300 g for 5 minutes to remove cells and the supernatant was subjected to cytokine analysis to quantify secreted levels of IL-6 using an MSD assay.

MIP-1β = experiment: LPS-stimulated PBMC cytokine production, multiplex cytokine analysis: MIP-1β; conditions: Homo sapiens; PBMC 2×10^6 cells/ml, compound 1 hour, then 1 ng/ml LPS 18 hours
Experimental: Peripheral blood mononuclear cells (PBMCs) were isolated from the blood of healthy human donors by Ficoll cell separation. […] Supernatant samples were subjected to multiplex cytokine analysis (Luminex IS100 instrument) to quantify secreted levels of IL-6, IL-8, IL1-beta (IL-1β), GM-CSF, MDC, MIP-1alpha (MIP-1α), MIP-1beta (MIP-1β) and TNF-alpha (TNF-α) (see e.g. FIGS. 7A-C). IC50 (half maximal inhibitory concentration) values were calculated to measure the potency of each IMiD compound in inhibiting LPS-stimulated secretion of each cytokine (see Table 25).

TNF-α = experiment: LPS-stimulated PBMC cytokine production, multiplex cytokine analysis: TNF-α; conditions: Homo sapiens, PBMC, PBMC 2×10^6 cells/ml, compound 1 hour, then 1 ng/ml LPS 18 hours
Experimental: (§2) Peripheral blood mononuclear cells (PBMCs) were isolated from the blood of healthy human donors by Ficoll cell separation. The PBMCs were seeded at a concentration of 2×10^6 cells/ml and treated for 1 hour at 37° C. with various concentrations of IMiD compounds or control DMSO (0.25%), before stimulation with 1 ng/ml LPS for 18 hours at 37° C.
(§3) Supernatant samples were subjected to multiplex cytokine analysis (Luminex IS100 instrument) to quantify secreted levels of IL-6, IL-8, IL1-beta (IL-1β), GM-CSF, MDC, MIP-1alpha (MIP-1α), MIP-1beta (MIP-1β) and TNF-alpha (TNF-α) (see e.g. FIGS. 7A-C).
IC50 (half maximal inhibitory concentration) values were calculated to measure the potency of each IMiD compound in inhibiting LPS-stimulated secretion of each cytokine (see Table 25).

[3] = tested on: IL-6, IL-8, IL-1β, GM-CSF, MDC, MIP-1α, MIP-1β and TNF-α; experiment: LPS-induced secretion of proinflammatory cytokines from PBMCs (whole multiplex panel, result in words); conditions: pre-treatment 1 hour, 1 ng/ml LPS 18 hours
Experimental: Peripheral blood mononuclear cells (PBMCs) from healthy volunteers were seeded at a concentration of 2×10^6 cells/ml and treated with the indicated concentrations of IMiD compounds or control DMSO (0.25%) for 1 hour, before stimulation with 1 ng/ml LPS. After 18 hours, proinflammatory cytokine levels in the supernatant were assessed by multiplex cytokine analysis.
as §2, §3

| IC50 (MIP-1β) [µM] | IC50 (TNF-α) [µM] | Compound | LPS-induced IL-6 secretion from monocytes (IL-6 [1]) | median reduction in IL-6 levels relative to DMSO control (IL-6 [2]; 1 nM Compound 1 pre-treatment, 10 ng/ml CC-93269, PBMCs from 15 healthy donors) | IL-6 secretion at CC-93269 concentrations up to 10,000 ng/mL, PBMCs + K562-BCMA (IL-6 [2]; Compound 1 pre-treatment) | secretion of IL-6 associated with CC-93269 activity, PBMCs + K562-BCMA (IL-6 [2]) | LPS-induced secretion of proinflammatory cytokines from PBMCs (effect in words) [3] |
| --- | --- | --- | --- | --- | --- | --- | --- |
|  |  | N#Cc1ccc(N2CCN(Cc3ccc(COc4cccc5c4CN(C4CCC(=O)NC4=O)C5=O)cc3)CC2)c(F)c1 (stereo not drawn) [Compound 1, 4-(4-(4-(((2-(2,6-dioxopiperidin-3-yl)-1-oxoisoindolin-4-yl)oxy)methyl)benzyl)piperazin-l-yl)-3-fluorobenzonitrile] | diminished | about two-fold | suppresses | diminished/attenuated; also recorded: suppressed |  |
| > 10 | 0.00059 | O=C1CC[C@H](N2Cc3c(OCc4ccc(CN5CCOCC5)cc4)cccc3C2=O)C(=O)N1 [Iberdomide, (S)-3-(4-((4-(morpholinomethyl)benzyl)oxy)-1-oxoisoindolin-2-yl)piperidine-2,6-dione] | diminished |  |  | diminished/attenuated; also recorded: suppressed | inhibited |
| > 10 | 0.22 | Nc1cccc2c1CN(C1CCC(=O)NC1=O)C2=O (stereo not shown) [Lenalidomide, 3-(4-amino-1-oxo-2,3-dihydro-1H-isoindol-2-yl) piperidine-2,6-dione] | diminished |  |  | diminished/attenuated; also recorded: suppressed | inhibited |
| > 10 | 0.033 | Nc1cccc2c1C(=O)N(C1CCC(=O)NC1=O)C2=O (stereo not shown) [Pomalidomide, 4-amino-2-(2,6-dioxopiperidine-3-yl)isoindoline-1,3-dione] | diminished |  |  | diminished/attenuated; also recorded: suppressed | inhibited |
